Measurements from patent publication US20100297020A1, “PHOSPHORYLATED AND PHOSPHONATED PYRONE ANALOGS FOR THERAPEUTIC TREATMENT” (Limerick Biopharma, Inc., priority 2008, published 2010).
Values belong to the compound of their own block, whether it stands above or below them.

What was measured:
[1] = tested on: cyclosporin treated Wistar rats; assay: Cyclosporine induced hyperglycemia in male Wistar rats; type: in vivo
[2] = tested on: cyclosporin treated Wistar rats; assay: Islet histopathology and apoptosis in cyclosporine treated Wistar rats; type: in vivo; conditions: cyclosporine 10 mg/kg PO, alone (Group-2) or with compound 1 30 mg/kg IP (Group-3)
[3] = tested on: tacrolimus treated Wistar rats; assay: Tacrolimus induced hyperglycemia in male Wistar rats; type: in vivo; conditions: for plasma glucose levels by day-14: tacrolimus 2 mg/kg PO daily, alone or with compound 1 at 30, 10 and 3 mg/kg IP
male ZDF rats = assay: 4-week study in male ZDF rats (compound 1)
[4] = tested on: BB19 cells, human BCECs (brain capillary endothelial cells); assay: Tacrolimus uptake assay; type: cell-based; conditions: Endothelial cell, 1 h, 0.1 μM test compound, 1 hour incubation, 3H-tacrolimus 34 nM, read-out: cell associated ^3H-tacrolimus uptake, % of control
Description: (§1) BB19 cells, human BCECs (brain capillary endothelial cells) immortalized with the E6E7 genes of human papilloma virus, were kindly provided from Jacques G. Prudhomme, Department of Biology, University of California, Riverside, U.S.A. The cells were cultured as monolayer culture in Amniomax™-C100 basal medium (catalog number 17001-157) with Amniomax™-C100 supplement (catalog number 12556-049) (Invitrogen, Basel, CH).
(§2) Cells were seeded onto culture surfaces precoated with 10 μg/cm^2 rat tail collagen type I (BD Bioscience, Allschwil, CH) at a density of approximately 50′000 cells/cm^2 and were cultured in an incubator at 37° C. with 5% CO2, 95% fresh air and saturated humidity. For uptake assays, cells were seeded on precoated 96-well plates. Assays were performed at confluency, after 6 days in culture.
(§3) BB19 cells were seeded 50′000 cells/cm^2 on 96-well plates (Falcon) and incubated under condition described above for 6 days. Before starting the assay, cells were washed 2 times with pre-warmed Dulbecco's MEM with Glutamax-I (catalog number 61965) (Invitrogen AG, Basel, CH), supplemented with 1% non essential amino acids, 1% sodium pyruvate, 50 μg/ml gentamycin (Invitrogen AG) (DMEM). Cells were then incubated for 15 min at 37° C. and 120 rpm in DMEM with or without the specified concentrations of test compounds under investigation. After this pre-incubation, cells were incubated in DMEM containing [propyl-3H]-dihydro-FK506 (3H-tacrolimus, 1 μCi/ml, 34 nM) and with or without the specified concentrations of test compounds for 1 hour at 37° C. and 120 rpm. During this 1-hour incubation period, influx and efflux of the substrate, ^3H-tacrolimus, occur. After the 1-hour incubation period, assay was terminated by placing the assay plate on ice and washing the cells twice with ice-cold DMEM. Determination of cell associated ^3H-tacrolimus was performed by addition of Insta Gel and scintillation liquid to trypsinized cells followed by analysis on a scintillation counter (Packard TriCarb2000, Can berra Packard S.A.). The results are expressed as: % of control=100×[^3H-tacrolimus conc. with test compound]/[^3H-tacrolimus conc. with vehicle]

[5] = tested on: BB19 cells, human BCECs (brain capillary endothelial cells); assay: Cyclosporin uptake assay; type: cell-based; conditions: 0.1 μM test compound; 1 hour incubation
Description: as §1, §2, §3
The cyclosporin uptake assay was performed similarly as described above for tacrolimus uptake assay except that ^3H-cyclosporin was used in place of ^3H-tacrolimus.

[6] = tested on: rats treated with tacrolimus; assay: Renal pathology in rats co-administered with tacrolimus; type: in vivo; conditions: tacrolimus 0.5 mg/kg with vehicle or with Compound 2 at 11, 28 and 114 mg/kg, 25 days
Description: Tissue is removed from the kidney of rats treated with tacrolimus (Prograf®) at 0.5 mg/kg and inert vehicle, and from rats treated with tacrolimus (Prograf®) at 0.5 mg/kg and quercetin-3′-O-methylphosphonate (Compound 2) at 11 mg/kg, 28 mg/kg, and at 114 mg/kg for 25 days. […] The tissue from rats treated with Compound 2 and tacrolimus show no vacuoles.

[7] = compound 1 30 mg/kg, rosiglitazone 6 mg/kg, compared to vehicle

SMILES: O=c1c(OCP(=O)(O)O)c(-c2ccc(O)c(O)c2)oc2cc(O)cc(O)c12 [Compound 1, Quercetin-3-O-methylphosphonic acid]
- plasma glucose level during OGTT ([1]; compound 1 30 mg/kg IP with cyclosporine 10 mg/kg PO, day-15): a level similar to that of vehicle treated animals
- plasma glucose levels by day-14 ([1]; cyclosporine 10 mg/kg PO daily, alone or with compound 1 at 30, 10 and 3 mg/kg IP): reduced cyclosporine induced hyperglycemia
- plasma glucose levels by day-14 ([1]; cyclosporine 10 mg/kg PO with compound 1 at 30 mg/kg IP): completely prevented cyclosporine induced hyperglycemia
- number of apoptotic islet cells [2]: reduced the number of apoptotic cells to that of vehicle treated animals
- islet cell hyperplasia and degeneration/necrosis scores ([2]; score 0-4): normalized the scores to that of vehicle treated animals
- plasma insulin level during OGTT ([3]; 0, 15 and 30 minutes post glucose, compound 1 at all three dose levels with tacrolimus 2 mg/kg): higher than tacrolimus treated (group-2) or vehicle treated (Group-1) animals
- plasma glucose level during OGTT ([3]; compound 1 30 mg/kg and 10 mg/kg IP with tacrolimus 2 mg/kg PO, day-15): a level similar to that of vehicle treated animals
- plasma glucose levels by day-14 [3]: reduced tacrolimus induced hyperglycemia
- plasma glucose levels (male ZDF rats; 4 weeks daily i.p., compound 1 30 and 10 mg/kg): maintains a lower plasma glucose level than vehicle treatment
- glycated hemoglobin levels (% HbA1c) at termination (male ZDF rats; [7]): significantly lower glycated hemoglobin levels
- pancreatic insulin levels (male ZDF rats; [7]): significantly higher than that of the vehicle treated animals
- plasma insulin levels, fed and fasting (male ZDF rats; day-28 and day-29): significantly higher plasma insulin levels under both fed and fasting conditions
- liver triglyceride (male ZDF rats; four weeks of daily treatment): did not increase liver triglyceride
- plasma glucose during OGTT (male ZDF rats; oral glucose 2 g/kg, day-29 after 12-hr fast, 15, 30, 60, 90 minutes): maintain lower plasma glucose level during OGTT

SMILES: O=c1c(O)c(-c2ccccc2)oc2cc(OCP(=O)(O)O)cc(O)c12 [Compound 10, (3,5-Dihydroxy-4-oxo-2-phenyl-4H-chromen-7-yloxy)methylphosphonic acid]
- activity at 0.1 µM [4]: 51%

SMILES: O=c1c(O)c(-c2ccc(OCP(=O)(O)O)cc2)oc2cc(O)cc(O)c12 [Compound 11, (4-(3,5,7-Trihydroxy-4-oxo-4H-chromen-2-yl)phenoxy)methylphosphonic acid]
- activity at 0.1 µM [4]: 49%
- cell associated ^3H-cyclosporin uptake, % of control [5]: 78 % of control

SMILES: O=c1c(O)c(-c2ccccc2)oc2cc(O)cc(OCP(=O)(O)O)c12 [Compound 16, (3,7-Dihydroxy-4-oxo-2-phenyl-4H-chromen-5-yloxy)methylphosphonic acid]
- activity at 0.1 µM [4]: 54%

SMILES: O=c1c(O)c(-c2ccc(O)c(OCP(=O)(O)O)c2)oc2ccccc12 [Compound 18, (2-Hydroxy-5-(3-hydroxy-4-oxo-4H-chromen-2-yl)phenoxy)methylphosphonic acid]
- activity at 0.1 µM [4]: 66%
- cell associated ^3H-cyclosporin uptake, % of control [5]: 77 % of control

SMILES: O=c1c(OCP(=O)(O)O)c(-c2ccc(O)c(O)c2)oc2ccccc12 [Compound 20, (2-(3,4-Dihydroxyphenyl)-4-oxo-4H-chromen-3-yloxy)methylphosphonic acid]
- activity at 0.1 µM [4]: 62%
- cell associated ^3H-cyclosporin uptake, % of control [5]: 77 % of control

- vacuolation of kidney tissue [6]: significant vacuolation
SMILES: C=CC[C@@H]1/C=C(\C)C[C@H](C)C[C@H](OC)[C@H]2O[C@@](O)(C(=O)C(=O)N3CCCC[C@H]3C(=O)O[C@H](/C(C)=C/[C@@H]3CC[C@@H](O)[C@H](OC)C3)[C@H](C)[C@@H](O)CC1=O)[C@H](C)C[C@@H]2OC [Tacrolimus, tacrolimus, reference compound]
- plasma glucose levels by day-14 [3]: induced hyperglycemia is clearly demonstrated
